# Measured values reported in patent US11684607B2, “Secnidazole for use in the treatment of bacterial vaginosis” (priority 2014, dated 2023).
# Key:
# [1] = Safety evaluation of SYM-1219 alone or in combination with EE2/NET; format: in vivo, human; settings: 2 g
# Protocol: Methods: Fifty-four (54) healthy female subjects, ages 18-65, received EE2/NET alone and in combination, where SYM-1219+EE2/NET were co-administered on Day 1 (Group B1; N=27) or SYM-1219 on Day 1 and EE2/NET on Day 2 (Group B2; N=27). Serial blood samples were drawn to measure plasma concentrations of EE2/NET. […] Safety was evaluated by recording of adverse events, vital signs, ECGs and standard laboratory tests.
# [2] = set-up: species or system human; settings: in vivo
# From the text: (§1) The study was designed in accordance with FDA guidance for pivotal bacterial vaginosis trials with a primary end point clinical cure in the Modified Intent-to-Treat (mITT) population at day 21 to 30 versus placebo (two-sided test at alpha=0.05). Subjects were recruited to the study they presented with the following Amsel criteria: presence of typical discharge. a positive KOH Whiff test vaginal fluid pH greater than or equal to 4.7, and the presence of “clue cells” (epithelial cells with adhering bacteria) on microscopic examination.
# [3] = Safety evaluation (adverse events, vital signs, ECGs, laboratory tests) after single 1 g or 2 g dose of SYM-1219; format: in vivo, human; settings: single 1 g or 2 g oral dose; healthy female subjects
# Protocol: Methods: 28 healthy female subjects (14/group) ages 18-65 years were randomized to receive a single oral dose of either 1 or 2 grams of SYM-1219, mixed into 4 oz. of applesauce. […] Safety was evaluated by recording adverse events, vital signs, ECGs and laboratory tests.
# [4] = Single oral dose pharmacokinetics (plasma and urine) of SYM-1219 microgranule formulation in fasted healthy female subjects; settings: for AUC(0-t): AUC0-t; for CL renal: CLr
# Protocol: A non-compartmental analysis was performed and the PK parameters for each treatment group are reported.
# bacterial vaginosis = assay: Phase 2 double-blind placebo-controlled study, clinical outcome responder (clinical cure) in women with bacterial vaginosis; format: in vivo, human
# From the text: as §1
# [5] = female, human, plasma, po, 1 g, Geometric Mean, 1 gram single oral dose, fasted, N = 14
# [6] = female, human, plasma, po, 1 g, Mean, 1 gram single oral dose, fasted, N = 14
# [7] = female, human, plasma, po, 1 g, Median, 1 gram single oral dose, fasted, N = 14
# [8] = plasma, 1 gram single oral dose, fasted, N = 14
# [9] = plasma, 2 grams single oral dose, fasted, N = 14
# [10] = urine, 1 gram single oral dose, fasted, N = 14
# [11] = urine, 2 grams single oral dose, fasted, N = 14
smiles,measurement,setting,value
"Cc1ncc([N+](=O)[O-])n1CC(C)O (stereo not drawn) [SYM-1219, 1-(2-hydroxypropyl)-2-methyl-5-nitromidazole]","changes in vital signs, ECG or laboratory parameters",[1],no significant changes
same,safety and tolerability,[1],safe and well-tolerated
same,Acute sinusitis: Events,"[2]; female, human",0 n
same,Acute sinusitis: Subjects,"[2]; female, human",0 n
same,Adverse Event: Abdominal pain,"[2]; female, human",0%
same,Adverse Event: Diarrhea,"[2]; female, human",0%
same,Adverse Event: Fungal Infection,"[2]; female, human",3%
same,Adverse Event: Headache,"[2]; female, human",1%
same,Adverse Event: Metallic/Unusual Taste,"[2]; female, human",1%
same,Adverse Event: Nausea,"[2]; female, human",1%
same,Adverse Event: Vulva/Vaginal Irritation,"[2]; female, human",1%
same,Alanine aminotransferase increased: Events,"[2]; female, human",1 n
same,"Any Adverse Event, Overall: Events","[2]; female, human",19 n
same,Aspartate aminotransferase increased: Events,"[2]; female, human",1 n
same,Candida infection: Events,"[2]; female, human",0 n
same,Candida infection: Subjects,"[2]; female, human",0 n
same,Chlamydial infection: Events,"[2]; female, human",1 n
same,Chromaturia: Events,"[2]; female, human",1 n
same,Dizziness: Events,"[2]; female, human",1 n
same,Dysgeusia: Events,"[2]; female, human",1 n
same,Fungal infection: Events,"[2]; female, human",0 n
same,Fungal infection: Subjects,"[2]; female, human",0 n
same,"Gastrointestinal disorders, Overall: Events","[2]; female, human",1 n
same,Gonorrhoea: Events,"[2]; female, human",1 n
same,Headache: Events,"[2]; female, human",1 n
same,"Infections and infestations, Overall: Events","[2]; female, human",7 n
same,"Injury, poisoning and procedural complications, Overall: Events","[2]; female, human",1 n
same,"Investigations, Overall: Events","[2]; female, human",2 n
same,Nausea: Events,"[2]; female, human",1 n
same,"Nervous system disorders, Overall: Events","[2]; female, human",3 n
same,Oropharyngeal pain: Events,"[2]; female, human",1 n
same,"Renal and urinary disorders, Overall: Events","[2]; female, human",1 n
same,"Reproductive system and breast disorders, Overall: Events","[2]; female, human",3 n
same,"Respiratory, thoracic and mediastinal disorders, Overall: Events","[2]; female, human",1 n
same,"Surgical and medical procedures, Overall: Events","[2]; female, human",0 n
same,"Surgical and medical procedures, Overall: Subjects","[2]; female, human",0 n
same,Thermal burn: Events,"[2]; female, human",1 n
same,Tooth abscess: Events,"[2]; female, human",1 n
same,Tooth extraction: Events,"[2]; female, human",0 n
same,Tooth extraction: Subjects,"[2]; female, human",0 n
same,Tooth infection: Events,"[2]; female, human",1 n
same,Upper respiratory tract infection: Events,"[2]; female, human",0 n
same,Upper respiratory tract infection: Subjects,"[2]; female, human",0 n
same,Urinary tract infection: Events,"[2]; female, human",1 n
same,Vaginal discharge: Events,"[2]; female, human",1 n
same,Vaginal odor: Events,"[2]; female, human",1 n
same,Vulvovaginal mycotic infection: Events,"[2]; female, human",2 n
same,Vulvovaginal pruritus: Events,"[2]; female, human",1 n
same,tolerability,[2],surprisingly well tolerated
same,"changes in vital signs, electrocardiogram (ECG) or laboratory parameters",[3],no significant changes
same,safety and tolerability,[3],safe and well-tolerated
same,severity and outcome of all adverse events,[3],mild and resolved without sequelae
same,intersubject variability for Cmax and AUC,[4]; 1 g and 2 g doses,< 20 % CV
same,renal clearance as percentage of the glomerular filtration rate typically found in healthy subjects,[4]; 1 g and 2 g doses,< 5%
same,"Urinary excretion of unchanged SYM-1219, share of the administered dose",[4]; 1 g dose,13.6%
same,"Urinary excretion of unchanged SYM-1219, share of the administered dose",[4]; 2 g dose,15.3%
same,time by which maximum concentrations were achieved,[4]; both dose groups (1 g and 2 g),approximately 4 hrs.
same,dose proportionality of pharmacokinetics,[4]; comparing the 1 and 2 g doses,dose proportional
same,AUC(0-inf),"[4]; female, human, plasma, oral, 1 g, Exposure estimate (AUCinf)",619 µg·h/mL
same,AUC(0-inf),"[4]; female, human, plasma, oral, 2 g, Exposure estimate (AUCinf)",1330 µg·h/mL
same,Tmax,"[4]; female, human, plasma, po, 1 g",3.06 h
same,AUC(0-t),[4]; [5],603 µg·h/mL
same,AUC(0-t),[4]; [6],610 µg·h/mL
same,AUC(0-t),[4]; [7],587 µg·h/mL
same,Cmax,[4]; [5],22.4 µg/mL
same,Cmax,[4]; [6],22.6 µg/mL
same,Cmax,[4]; [7],22.8 µg/mL
same,AUC(0-inf),"[4]; female, human, plasma, po, 1 gram, AUC0-∞, Geometric Mean, 1 gram single oral dose, fasted, N = 14",612 µg·h/mL
same,AUC(0-inf),"[4]; female, human, plasma, po, 1 gram, AUC0-∞, Mean, 1 gram single oral dose, fasted, N = 14",619 µg·h/mL
same,AUC(0-inf),"[4]; female, human, plasma, po, 1 gram, AUC0-∞, Median, 1 gram single oral dose, fasted, N = 14",595 µg·h/mL
same,CL renal,"[4]; female, human, urine, po, 1 gram, Geometric Mean, 1 gram single oral dose, fasted, N = 14",3.65 mL/min
same,CL renal,"[4]; female, human, urine, po, 1 gram, Mean, 1 gram single oral dose, fasted, N = 14",3.74 mL/min
same,Mean maximum concentration,"[4]; plasma, 1 g dose",22.6 µg/mL
same,"t1/2, Mean",[4]; [8],17.05 h
same,"t1/2, Median",[4]; [8],16.79 h
same,"λz, Mean",[4]; [8],0.04099 h⁻¹
same,"λz, Median",[4]; [8],0.04129 h⁻¹
same,Mean maximum concentration,"[4]; plasma, 2 g dose",45.4 µg/mL
same,"AUC0-t, Geometric Mean",[4]; [9],1305.35 µg·h/mL
same,"AUC0-t, Mean",[4]; [9],1322.40 µg·h/mL
same,"AUC0-t, Median",[4]; [9],1290.41 µg·h/mL
same,"AUC0-∞, Geometric Mean",[4]; [9],1314.74 µg·h/mL
same,"AUC0-∞, Mean",[4]; [9],1331.63 µg·h/mL
same,"AUC0-∞, Median",[4]; [9],1299.10 µg·h/mL
same,"Cmax, Geometric Mean",[4]; [9],44.84 µg/mL
same,"Cmax, Mean",[4]; [9],45.43 µg/mL
same,"Cmax, Median",[4]; [9],45.05 µg/mL
same,"Tmax, Median",[4]; [9],4.000 h
same,"t1/2, Mean",[4]; [9],16.86 h
same,"t1/2, Median",[4]; [9],17.13 h
same,"λz, Mean",[4]; [9],0.0422 h⁻¹
same,"λz, Median",[4]; [9],0.04047 h⁻¹
same,"% FE, Geometric Mean",[4]; [10],13.403%
same,"% FE, Mean",[4]; [10],13.602%
same,"% FE, Median",[4]; [10],13.981%
same,"Ae0-168, Geometric Mean",[4]; [10],0.134 g
same,"Ae0-168, Mean",[4]; [10],0.136 g
same,"Ae0-168, Median",[4]; [10],0.140 g
same,"CLr, Median",[4]; [10],3.965 mL/min
same,"% FE, Geometric Mean",[4]; [11],14.991%
same,"% FE, Mean",[4]; [11],15.300%
same,"% FE, Median",[4]; [11],14.943%
same,"Ae0-168, Geometric Mean",[4]; [11],0.300 g
same,"Ae0-168, Mean",[4]; [11],0.306 g
same,"Ae0-168, Median",[4]; [11],0.299 g
same,"CLr, Geometric Mean",[4]; [11],3.801 mL/min
same,"CLr, Mean",[4]; [11],3.935 mL/min
same,"CLr, Median",[4]; [11],3.962 mL/min
same,effectiveness in treating bacterial vaginosis,"bacterial vaginosis; 2 gram single dose, subjects with 3 or fewer as well as 4 or more episodes in the past 12 months",effective
same,effectiveness for bacterial vaginosis compared with placebo,bacterial vaginosis; 2 gram single-dose,effective
same,clinical cure rate,"bacterial vaginosis; single 2 g oral dose, 21-30 days after treatment",67.7%
